Measured values published in patent US20190175560A1, “MEBENDAZOLE CANCER THERAPIES AND METHODS OF USE” (Shepherd Therapeutics, Inc., priority 2017, published 2019).

Tests used:
Assay type in all cases: cell-based
[1] = test system: HCT116 colorectal carcinoma cells; test: Synergy of MBZ with chemotherapeutic agents (Chou-Talalay CI, Cell Titer Glo); conditions: in combination with MBZ, 72 hour incubation
Method: (§1) For in vitro experiments, cells were plated in triplicate and treated with a range of concentrations of MBZ and relevant chemotherapeutic agents in a complete Latin square.
(§2) Cells were plated in triplicate and treated with a range of 5 concentrations of MBZ in combination with 5 concentrations of chemotherapeutic agents in a complete Latin square. Following a 72 hour incubation, cell viability was determined using Cell Titer Glo.

[2] = test system: Hs766t pancreatic carcinoma cells; test: as above; conditions: in combination with MBZ, 72 hour incubation
Method: (§3) Cells were plated in triplicate and treated with a range of 5 concentrations of MBZ in combination with 5 concentrations of chemotherapeutic agents in a complete Latin square. Following a 72 hour incubation, cell viability was determined using Cell Titer Glo. The Combination index (CI) was determined based on the method described by Chou and Talalay (2010) with a CI value less than 0.9 indicating synergy.

[3] = test system: CCC-5 cholangiocarcinoma cells; test: as above; conditions: in combination with MBZ, 72 hour incubation
Method: as §1, §2

[4] = test system: BxPC-3 pancreatic carcinoma cells; test: as above; conditions: in combination with MBZ, 72 hour incubation
Method: as §1, §2

[5] = test system: STC-1 carcinoid tumor cell line; test: as above; conditions: in combination with MBZ, 72 hour incubation
Method: as §1, §3

[6] = test system: Kato-III gastric carcinoma cells; test: as above; conditions: in combination with MBZ, 72 hour incubation
Method: as §1, §2

[7] = test system: Colo-205 colorectal carcinoma cells; test: as above; conditions: in combination with MBZ, 72 hour incubation
Method: as §1, §2

[8] = test system: SNU16 gastric carcinoma cells; test: Synergy of MBZ or HA-PLGA-MBZ with chemotherapeutic agents (Chou-Talalay CI, Cell Titer Glo); conditions: in combination with MBZ; SNU16; 72 hour incubation
Method: as §1, §2
(§4) In table 22 below, cells were plated in triplicate and treated with a range of 5 concentrations of MBZ or HA-PLGA-MBZ nanoparticles containing a molar equivalent of MBZ, and 5 concentrations of relevant chemotherapeutic agents in a complete Latin square. Combination indexes (CI) were determined based on the method described by Chou-Talalay with a CI value less than 0.9 indicating synergy. […] Numbers in parentheses represent the range of synergistic CI values for each cell line and drug combination.

[9] = test system: Flo-1 esophageal carcinoma cells; test: Synergy of MBZ with chemotherapeutic agents (Chou-Talalay CI, Cell Titer Glo); conditions: in combination with MBZ, 72 hour incubation
Method: as §1, §2

[10] = test system: GIST-1 gastrointestinal stromal tumor cell line; test: Synergy of MBZ with small molecule agents (Chou-Talalay CI, Cell Titer Glo); conditions: in combination with MBZ, 72 hour incubation
Method: (§5) For in vitro experiments, cells were plated in triplicate and treated with a range of concentrations of MBZ and relevant chemotherapeutic agents in a complete Latin square. Combination indexes (CI) were determined based on the method described by Chou and Talalay (Cancer Res. 2010 Jan. 15; 70(2):440-6. doi: 10.1158/0008-5472.CAN-09-1947. Epub 2010 Jan. 12).
as §3

[11] = test system: CHP-212 neuroblastoma cells; test: Synergy of MBZ or HA-PLGA-MBZ with chemotherapeutic agents (Chou-Talalay CI, Cell Titer Glo); conditions: in combination with MBZ; CHP-212; 72 hour incubation
Method: as §1, §2, §4

[12] = test system: MSTO-211H mesothelioma cells; test: Synergy of MBZ with chemotherapeutic agents (Chou-Talalay CI, Cell Titer Glo); conditions: in combination with MBZ, 72 hour incubation
Method: as §1, §3

[13] = test system: OE-33 esophageal carcinoma cells; test: as above; conditions: in combination with MBZ, 72 hour incubation
Method: as §1, §2

LO68 mesothelioma cells = test: as above; conditions: in combination with MBZ, 72 hour incubation
Method: as §1, §3

[14] = test system: SK-N-AS neuroblastoma cells; test: as above; conditions: in combination with MBZ, 72 hour incubation
Method: as §3

[15] = test system: TOV-112D ovarian carcinoma cells; test: as above; conditions: in combination with MBZ, 72 hour incubation
Method: as §1, §3

JU77 mesothelioma cells = test: as above; conditions: in combination with MBZ, 72 hour incubation
Method: as §1, §3

[16] = test system: COV362 ovarian carcinoma cells; test: as above; conditions: in combination with MBZ, 72 hour incubation
Method: as §1, §2

[17] = test system: TFK-1 cholangiocarcinoma cells; test: as above; conditions: in combination with MBZ, 72 hour incubation
Method: as §5, §3

[18] = test system: H295R adrenocortical carcinoma cells; test: as above; conditions: in combination with MBZ, 72 hour incubation
Method: as §5, §3

[19] = test system: DMS-114 small cell lung carcinoma cells; test: as above; conditions: in combination with MBZ, 72 hour incubation
Method: as §5, §3

[20] = test system: SW-1271 small cell lung carcinoma cells; test: as above; conditions: in combination with MBZ, 72 hour incubation
Method: as §1, §3

[21] = test system: SW13 adrenocortical carcinoma cells; test: as above; conditions: in combination with MBZ, 72 hour incubation
Method: as §3

[22] = test system: PC12 pheochromocytoma/paraganglioma cell line; test: Synergy of MBZ or HA-PLGA-MBZ with chemotherapeutic agents (Chou-Talalay CI, Cell Titer Glo); conditions: in combination with MBZ; PC12; 72 hour incubation
Method: as §1, §2, §4

[23] = test system: SK-LMS-1 leiomyosarcoma cells; test: Synergy of MBZ with chemotherapeutic agents (Chou-Talalay CI, Cell Titer Glo); conditions: in combination with MBZ, 72 hour incubation
Method: as §3

[24] = test system: SK-UT-1B leiomyosarcoma cells; test: as above; conditions: in combination with MBZ, 72 hour incubation
Method: as §5, §3

[25] = test system: SK-UT-1 leiomyosarcoma cells; test: as above; conditions: in combination with MBZ, 72 hour incubation
Method: as §3

[26] = test system: HepG2 hepatocellular carcinoma cells; test: as above; conditions: in combination with MBZ, 72 hour incubation
Method: as §1, §2

[27] = test system: HepG2-C3A hepatocellular carcinoma cells; test: as above; conditions: in combination with MBZ, 72 hour incubation
Method: as §1, §3

`O=c1[nH]cc(F)c(=O)[nH]1` [5-FU, 5-Fluorouracil] was tested, and the “CI range for the concentration pairings” value [1] was 0.285-0.860, the “CI range for the concentration pairings” value [2] was 0.170-0.877 and the “CI range for the concentration pairings” value [3] was 0.252-0.878. For the same compound, the “CI range for the concentration pairings” value [4] was 0.448-0.792, the “CI range for the concentration pairings” value [5] was 0.458-0.850 and the “CI range for the concentration pairings” value [6] was 0.073-0.558. For the same compound, the “CI range for the concentration pairings” value [7] was 0.528-0.748, the “CI range for the concentration pairings” value [8] was 0.429-0.827 and the “CI range for the concentration pairings” value [9] was 0.370-0.855.
For `CCN1CCN(Cc2ccc(Nc3ncc(F)c(-c4cc(F)c5nc(C)n(C(C)C)c5c4)n3)nc2)CC1` [Abemaciclib], the “CI range for the concentration pairings” value [10] was 0.390-0.701.
For `N.N.O=C([O-])C1(C(=O)[O-])CCC1.[Pt+2]` [Carboplatin], the “CI range for the concentration pairings” value [11] was 0.587-0.876, the “synergy with MBZ (Yes/No)” value [12] was “No” and the “CI range for the concentration pairings” value [13] was 0.542-0.636. The “CI range for the concentration pairings” value (LO68 mesothelioma cells) was 0.574-0.865, the “synergy with MBZ (Yes/No)” value [6] was “No” and the “CI range for the concentration pairings” value [14] was 0.433-0.891. For the same compound, the “CI range for the concentration pairings” value [15] was 0.506-0.845, the “CI range for the concentration pairings” value [8] was 0.409-0.783 and the “CI range for the concentration pairings” value (JU77 mesothelioma cells) was 0.539-0.841. The “CI range for the concentration pairings” value [9] was 0.063-0.603 and the “CI range for the concentration pairings” value [16] was 0.553-0.860.
For `N.N.[Cl][Pt][Cl]` [Cisplatin], the “CI range for the concentration pairings” value [11] was 0.653-0.896, the “CI range for the concentration pairings” value [2] was 0.658-0.847 and the “CI range for the concentration pairings” value [3] was 0.121-0.716. The “CI range for the concentration pairings” value [4] was 0.469-0.762, the “CI range for the concentration pairings” value [17] was 0.405-0.877 and the “CI range for the concentration pairings” value [18] was 0.544-0.771. For the same compound, the “CI range for the concentration pairings” value [19] was 0.223-0.837, the “CI range for the concentration pairings” value [20] was 0.275-0.763 and the “CI range for the concentration pairings” value [21] was 0.410-0.883. For the same compound, the “CI range for the concentration pairings” value [5] was 0.441-0.785, the “CI range for the concentration pairings” value [14] was 0.141-0.746 and the “CI range for the concentration pairings” value [15] was 0.497-0.860. For the same compound, the “CI range for the concentration pairings” value [16] was 0.578-0.878.
`O=P1(N(CCCl)CCCl)NCCCO1` (stereo not drawn) [Cyclophosphamide] was tested, and the “CI range for the concentration pairings” value [11] was 0.569-0.860, the “CI range for the concentration pairings” value [5] was 0.226-0.784 and the “CI range for the concentration pairings” value [22] was 0.388-0.879.
With `CN(C)/N=N/c1[nH]cnc1C(N)=O` [Dacarbazine] the “CI range for the concentration pairings” value [22] was 0.246-0.785.
For `CC(=O)O[C@@]12CO[C@@H]1C[C@H](O)[C@@]1(C)C(=O)[C@H](O)C3=C(C)[C@@H](OC(=O)[C@H](O)[C@@H](NC(=O)OC(C)(C)C)c4ccccc4)C[C@@](O)([C@@H](OC(=O)c4ccccc4)[C@H]21)C3(C)C` [Docetaxel], the “synergy with MBZ (Yes/No)” value [23] was “No”, the “synergy with MBZ (Yes/No)” value [15] was “No” and the “CI range for the concentration pairings” value [16] was 0.399-0.867.
With `COc1cccc2c1C(=O)c1c(O)c3c(c(O)c1C2=O)C[C@@](O)(C(=O)CO)C[C@@H]3O[C@H]1C[C@H](N)[C@H](O)[C@H](C)O1` [Doxorubicin] the “CI range for the concentration pairings” value [24] was 0.716-0.887, the “CI range for the concentration pairings” value [11] was 0.646-0.883 and the “CI range for the concentration pairings” value [12] was 0.288-0.700. For the same compound, the “synergy with MBZ (Yes/No)” value [18] was “No”, the “CI range for the concentration pairings” value [21] was 0.771-0.850 and the “CI range for the concentration pairings” value [5] was 0.419-0.829. The “CI range for the concentration pairings” value (LO68 mesothelioma cells) was 0.433-0.875, the “CI range for the concentration pairings” value [23] was 0.514-0.872 and the “CI range for the concentration pairings” value [14] was 0.267-0.849. The “CI range for the concentration pairings” value (JU77 mesothelioma cells) was 0.458-0.820 and the “synergy with MBZ (Yes/No)” value [25] was “No”.
With `COc1cc([C@@H]2c3cc4c(cc3[C@@H](O[C@@H]3O[C@@H]5CO[C@@H](C)O[C@H]5[C@H](O)[C@H]3O)[C@H]3COC(=O)[C@H]23)OCO4)cc(OC)c1O` [Etoposide] the “CI range for the concentration pairings” value [1] was 0.607-0.890, the “CI range for the concentration pairings” value [11] was 0.647-0.891 and the “CI range for the concentration pairings” value [19] was 0.551-0.832. The “CI range for the concentration pairings” value [20] was 0.535-0.899, the “CI range for the concentration pairings” value [21] was 0.618-0.710 and the “CI range for the concentration pairings” value [5] was 0.253-0.893. The “CI range for the concentration pairings” value [7] was 0.293-0.707.
With `Nc1ccn([C@@H]2O[C@H](CO)[C@@H](O)C2(F)F)c(=O)n1` [Gemcitabine] the “CI range for the concentration pairings” value [24] was 0.410-0.893, the “CI range for the concentration pairings” value [26] was 0.012-0.796 and the “CI range for the concentration pairings” value [12] was 0.086-0.796. The “CI range for the concentration pairings” value [2] was 0.149-0.874, the “CI range for the concentration pairings” value [3] was 0.394-0.855 and the “CI range for the concentration pairings” value [4] was 0.502-0.770. For the same compound, the “synergy with MBZ (Yes/No)” value [17] was “No”, the “synergy with MBZ (Yes/No)” value [27] was “No” and the “CI range for the concentration pairings” value (LO68 mesothelioma cells) was 0.525-0.845. For the same compound, the “CI range for the concentration pairings” value [23] was 0.418-0.861, the “CI range for the concentration pairings” value (JU77 mesothelioma cells) was 0.362-0.712 and the “CI range for the concentration pairings” value [25] was 0.385-0.802.
With `O=P1(NCCCl)OCCCN1CCCl` (stereo not drawn) [Ifosamide] the “CI range for the concentration pairings” value [25] was 0.317-0.708.
In the case of `Cc1ccc(NC(=O)c2ccc(CN3CCN(C)CC3)cc2)cc1Nc1nccc(-c2cccnc2)n1` [Imatinib], the “CI range for the concentration pairings” value [10] was 0.627-0.875.
In the case of `CCc1c2c(nc3ccc(OC(=O)N4CCC(N5CCCCC5)CC4)cc13)-c1cc3c(c(=O)n1C2)COC(=O)[C@]3(O)CC` [Irinotecan], the “CI range for the concentration pairings” value [1] was 0.545-0.793, the “synergy with MBZ (Yes/No)” value [2] was “No” and the “CI range for the concentration pairings” value [4] was 0.659-0.793. The “CI range for the concentration pairings” value [13] was 0.589-0.757, the “synergy with MBZ (Yes/No)” value [6] was “No” and the “CI range for the concentration pairings” value [7] was 0.502-0.819. For the same compound, the “CI range for the concentration pairings” value [8] was 0.635-0.871 and the “CI range for the concentration pairings” value [9] was 0.439-0.871.
In the case of `O=C1[O][Pt]2([NH][C@@H]3CCCC[C@H]3[NH]2)[O]C1=O` [Oxaliplatin], the “CI range for the concentration pairings” value [1] was 0.493-0.728, the “CI range for the concentration pairings” value [26] was 0.036-0.834 and the “CI range for the concentration pairings” value [3] was 0.060-0.631. The “CI range for the concentration pairings” value [4] was 0.455-0.758, the “CI range for the concentration pairings” value [13] was 0.395-0.597 and the “CI range for the concentration pairings” value [6] was 0.587-0.897. For the same compound, the “CI range for the concentration pairings” value [8] was 0.571-0.883 and the “CI range for the concentration pairings” value [9] was 0.355-0.875.
With `CC(=O)O[C@H]1C(=O)[C@@]2(C)[C@H]([C@H](OC(=O)c3ccccc3)[C@]3(O)C[C@H](OC(=O)[C@H](O)[C@@H](NC(=O)c4ccccc4)c4ccccc4)C(C)=C1C3(C)C)[C@]1(OC(C)=O)CO[C@@H]1C[C@@H]2O` [Paclitaxel] the “CI range for the concentration pairings” value [4] was 0.341-0.845, the “CI range for the concentration pairings” value [6] was 0.193-0.508 and the “CI range for the concentration pairings” value [15] was 0.367-0.839. The “CI range for the concentration pairings” value [8] was 0.425-0.883, the “CI range for the concentration pairings” value [9] was 0.430-0.864 and the “CI range for the concentration pairings” value [16] was 0.318-0.889.
With `CC[C@]1(O)C[C@H]2CN(CCc3c([nH]c4ccccc34)[C@@](C(=O)OC)(c3cc4c(cc3OC)N(C=O)[C@H]3[C@@](O)(C(=O)OC)[C@H](OC(C)=O)[C@]5(CC)C=CCN6CC[C@]43[C@@H]65)C2)C1` [Vincristine] the “CI range for the concentration pairings” value [22] was 0.274-0.871.
For `CCC1=C[C@@H]2CN(C1)Cc1c([nH]c3ccccc13)[C@@](C(=O)OC)(c1cc3c(cc1OC)N(C)[C@H]1[C@@](O)(C(=O)OC)[C@H](OC(C)=O)[C@]4(CC)C=CCN5CC[C@]31[C@@H]54)C2` [Vinorelbine], the “CI range for the concentration pairings” value [12] was 0.087-0.885, the “CI range for the concentration pairings” value (LO68 mesothelioma cells) was 0.445-0.872 and the “CI range for the concentration pairings” value (JU77 mesothelioma cells) was 0.325-0.799.
